Source: ChEMBL document CHEMBL1127986, “Synthesis and Biological Evaluation of New Leukotriene Analogs” (Bioorg Med Chem Lett, 1994)
The source made the active and inactive calls. The rule behind the calls is not given here.

Assays:
[1] = molecular target: T1, Polyunsaturated fatty acid 5-lipoxygenase (Homo sapiens, UniProt P09917); assay: Inhibition of 5-lipoxygenase was evaluated in human polymorphonuclear leukocytes stimulated by calcium ionophore A-23187 for formation of 5-HETE; NA means Not active; format: cell-based
T1 sequence (P09917 whole entry): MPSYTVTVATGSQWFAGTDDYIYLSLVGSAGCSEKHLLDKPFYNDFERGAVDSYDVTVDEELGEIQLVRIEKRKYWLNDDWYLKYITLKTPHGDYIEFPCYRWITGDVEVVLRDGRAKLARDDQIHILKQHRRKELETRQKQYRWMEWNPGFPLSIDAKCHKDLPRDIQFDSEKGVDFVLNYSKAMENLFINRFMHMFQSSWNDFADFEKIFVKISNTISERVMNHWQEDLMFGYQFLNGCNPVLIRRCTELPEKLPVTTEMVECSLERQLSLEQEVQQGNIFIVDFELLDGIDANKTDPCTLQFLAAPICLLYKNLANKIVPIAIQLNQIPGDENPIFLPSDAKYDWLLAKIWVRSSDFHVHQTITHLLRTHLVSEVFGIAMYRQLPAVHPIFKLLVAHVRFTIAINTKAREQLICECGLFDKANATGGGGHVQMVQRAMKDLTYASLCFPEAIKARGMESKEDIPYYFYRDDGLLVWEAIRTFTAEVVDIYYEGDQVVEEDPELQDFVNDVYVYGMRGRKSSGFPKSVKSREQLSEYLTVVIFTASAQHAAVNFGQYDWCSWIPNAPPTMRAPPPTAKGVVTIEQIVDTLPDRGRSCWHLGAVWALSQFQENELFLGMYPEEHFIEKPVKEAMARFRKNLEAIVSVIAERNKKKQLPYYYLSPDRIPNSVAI

[2] = molecular target: T1, Polyunsaturated fatty acid 5-lipoxygenase; assay: Inhibition of 5-lipoxygenase was evaluated in human polymorphonuclear leukocytes stimulated by calcium ionophore A-23187 for formation of LTB4; NA means Not active; format: cell-based
[3] = molecular target: T2, Polyunsaturated fatty acid 5-lipoxygenase (Homo sapiens) (UniProt P09917); assay: Inhibition of 5-lipoxygenase was evaluated in human polymorphonuclear leukocytes stimulated by calcium ionophore A-23187 for formation of 5-HETE at 10 uM; format: cell-based
T2 sequence (whole entry): T1 sequence (P09917 whole entry)

[4] = molecular target: Cyclooxygenase (Rattus norvegicus) (UniProt P35355+Q63921); assay: Inhibition of cyclooxygenase was evaluated in rat platelets stimulated by thrombin up to a concentration of 10 uM; NE means No effect
[5] = molecular target: T3, Arachidonate 12-lipoxygenase (Rattus norvegicus) (UniProt Q02759); assay: Inhibition of 12-lipoxygenase was evaluated in rat platelets stimulated by thrombin up to a concentration of 10 uM; NE means No effect
T3 sequence (whole entry): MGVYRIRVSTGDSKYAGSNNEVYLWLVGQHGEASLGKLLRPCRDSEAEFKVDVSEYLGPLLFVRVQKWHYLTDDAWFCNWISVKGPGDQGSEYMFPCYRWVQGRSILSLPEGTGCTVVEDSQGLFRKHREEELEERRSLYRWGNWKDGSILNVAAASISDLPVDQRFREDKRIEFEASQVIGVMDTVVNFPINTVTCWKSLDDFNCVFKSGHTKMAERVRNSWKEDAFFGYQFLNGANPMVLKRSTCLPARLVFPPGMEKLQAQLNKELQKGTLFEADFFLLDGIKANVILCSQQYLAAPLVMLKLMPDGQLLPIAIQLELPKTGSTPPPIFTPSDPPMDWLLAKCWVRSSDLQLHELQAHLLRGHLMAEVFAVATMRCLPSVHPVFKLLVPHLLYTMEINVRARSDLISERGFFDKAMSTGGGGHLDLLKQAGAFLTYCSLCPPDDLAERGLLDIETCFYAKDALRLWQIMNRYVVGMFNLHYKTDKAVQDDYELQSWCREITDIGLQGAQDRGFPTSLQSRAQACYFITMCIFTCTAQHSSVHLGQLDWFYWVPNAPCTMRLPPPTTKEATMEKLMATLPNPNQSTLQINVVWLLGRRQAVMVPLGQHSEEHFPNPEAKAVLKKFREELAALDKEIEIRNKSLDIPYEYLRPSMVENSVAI

[6] = molecular target: T2, Polyunsaturated fatty acid 5-lipoxygenase (Homo sapiens); assay: Inhibition of 5-lipoxygenase was evaluated in human polymorphonuclear leukocytes stimulated by calcium ionophore A-23187 for formation of LTB4 at 10 uM; format: cell-based
[7] = molecular target: T1, Polyunsaturated fatty acid 5-lipoxygenase; assay: Inhibition of 5-lipoxygenase was evaluated in human polymorphonuclear leukocytes stimulated by calcium ionophore A-23187 for formation of 5-HETE; format: cell-based
[8] = molecular target: T1, Polyunsaturated fatty acid 5-lipoxygenase; assay: Inhibition of 5-lipoxygenase was evaluated in human polymorphonuclear leukocytes stimulated by calcium ionophore A-23187 for formation of LTB4; format: cell-based
[9] = molecular target: T2, Polyunsaturated fatty acid 5-lipoxygenase (Homo sapiens); assay: Inhibition of 5-lipoxygenase was evaluated in human polymorphonuclear leukocytes stimulated by calcium ionophore A-23187 for formation of 5-HETE at 10 uM; NA means Inactive; format: cell-based
[10] = molecular target: T2, Polyunsaturated fatty acid 5-lipoxygenase (Homo sapiens); assay: Inhibition of 5-lipoxygenase was evaluated in human polymorphonuclear leukocytes stimulated by calcium ionophore A-23187 for formation of LTB4 at 10 uM; NA means Inactive; format: cell-based

SMILES | IC50 [1] | IC50 [2] | inhibition [3] [%] | Activity [4] | Activity [5] | inhibition [6] [%] | other results
CCCCC/C=C\C\C=C/C=C/C=C/C(O)CCC/C=N/OC (centres undefined) |  |  | 95 | inactive | inactive | 95 | 
CCCCC/C=C\C\C=C/C=C/C=C/C(O)CC/C=N\O (centres undefined) |  |  | 95 | inactive | inactive | 95 | 
CCCCC/C=C\C\C=C/C=C/C=C/[C@H](O)CCC/C=N/O |  |  |  | inactive | inactive |  | IC50 [7]: 2.8 µM; IC50 [8]: 3.3 µM
CCCCC/C=C\C\C=C/C=C/C=C/C(O)CCCCC (centres undefined) |  |  | 95 |  |  | 95 | 
CCCCC/C=C\Cc1ccc(/C=C/C(O)CCC/C=N\O)cc1 (centres undefined) |  |  |  | inactive | inactive |  | inhibition [9]: inactive; inhibition [10]: inactive
CCCCC/C=C\C\C=C/C=C/C=C/[C@@H](O)CCC/C=N/O | Not Active | Not Active |  | inactive | inactive |  | 

Now from value to compound, other results behind:

IC50 [1] | IC50 [2] | inhibition [3] [%] | Activity [4] | Activity [5] | inhibition [6] [%] | SMILES | other results
Not Active | Not Active |  |  |  |  | CCCCCCCC\C=C/C=C/C=C/C(O)CCC/C=N/O (centres undefined) | 
 |  |  | inactive | inactive |  | CCCCC/C=C\C\C=C/C=C/C=C/C(O)CCC/C=N/O (racemic) | IC50 [7]: 5.4 µM; IC50 [8]: 4.4 µM
Not Active | Not Active |  | inactive | inactive |  | CCCCC/C=C\C\C=C/C=C/C=C/C(CCC/C=N/O)OC (centres undefined) | 
 |  | < 40 |  |  | 60 | CCCCC/C=C\C/C=C\C=C\C(O)CCC/C=N/O (centres undefined) | 
